# Reference: article PMC9399411, “Identification of solamargine as a cisplatin sensitizer through phenotypical screening in cisplatin-resistant NSCLC organoids” (Frontiers in Pharmacology, 2022)
# Legend:
# SMO (smoothened) [1] = biological target: T1, SMO (smoothened) (Homo sapiens, UniProt Q99835); assay: BODIPY-cyclopamine competitive displacement on fixed U2OS-Smo cells (fluorescence imaging), […] vismodegib; assay type: cell-based
# T1 construct: human Smo protein stably overexpressed in U2OS cells
# T1 sequence (Q99835 28-787): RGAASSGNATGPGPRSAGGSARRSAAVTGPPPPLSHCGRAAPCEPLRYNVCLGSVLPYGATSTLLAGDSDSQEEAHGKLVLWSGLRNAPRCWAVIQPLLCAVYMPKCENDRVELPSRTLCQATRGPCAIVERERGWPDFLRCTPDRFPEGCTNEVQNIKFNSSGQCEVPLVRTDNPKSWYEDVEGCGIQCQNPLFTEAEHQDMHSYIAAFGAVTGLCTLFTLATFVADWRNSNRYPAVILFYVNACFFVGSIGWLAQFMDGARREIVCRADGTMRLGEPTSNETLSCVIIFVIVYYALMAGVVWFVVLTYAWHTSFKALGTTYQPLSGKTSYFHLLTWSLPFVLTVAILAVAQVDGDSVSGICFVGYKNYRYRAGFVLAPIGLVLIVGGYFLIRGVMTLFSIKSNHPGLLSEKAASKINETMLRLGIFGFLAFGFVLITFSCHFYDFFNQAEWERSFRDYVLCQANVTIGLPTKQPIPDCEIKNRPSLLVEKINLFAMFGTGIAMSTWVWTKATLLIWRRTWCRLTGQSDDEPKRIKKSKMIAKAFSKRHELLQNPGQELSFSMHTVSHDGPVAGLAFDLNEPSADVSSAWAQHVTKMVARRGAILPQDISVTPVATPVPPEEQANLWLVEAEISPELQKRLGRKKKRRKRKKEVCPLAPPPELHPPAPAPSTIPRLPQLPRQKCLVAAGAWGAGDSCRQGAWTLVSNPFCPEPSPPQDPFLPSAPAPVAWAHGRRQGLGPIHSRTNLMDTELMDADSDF
# SMO (smoothened) [2] = biological target: T1, SMO (smoothened); assay: BODIPY-cyclopamine competitive displacement on fixed U2OS-Smo cells (fluorescence imaging), […] solamargine; assay type: cell-based
smiles,measurement,setting,value
CS(=O)(=O)c1ccc(C(=O)Nc2ccc(Cl)c(-c3ccccn3)c2)c(Cl)c1 [vismodegib],BODIPY-cyclopamine competitive displacement on fixed U2OS-Smo cells (fluorescenc),SMO (smoothened) [1],vismodegib can directly bind to SMO and competitively remove BODIPY-cyclopamine from SMO
C[C@@H]1CC[C@@]2(NC1)O[C@H]1C[C@H]3[C@@H]4CC=C5C[C@@H](O[C@@H]6O[C@H](CO)[C@@H](O[C@@H]7O[C@@H](C)[C@H](O)[C@@H](O)[C@H]7O)[C@H](O)[C@H]6O[C@@H]6O[C@@H](C)[C@H](O)[C@@H](O)[C@H]6O)CC[C@]5(C)[C@H]4CC[C@]3(C)[C@H]1[C@@H]2C [Solamargine],BODIPY-cyclopamine competitive displacement on fixed U2OS-Smo cells (fluorescenc),SMO (smoothened) [2],"fluorescent signaling of BODIPY-cyclopamine wasalso suppressed by Solamargine (Figure 4C), suggesting the inhibitory binding of Solamargine to SMO"
